In patent publication US8168232B2, “Formulations and methods of using nitric oxide mimetics in cancer treatment” (priority 2000, dated 2012):
Where a name gives a salt, the structure may show the parent alone.

Key:
[1] = concentrations up to 500 μM; cited from earlier work
[2] = system: MDA-MB-231 breast carcinoma cells; assay: In vitro Matrigel invasion assay, MDA-MB-231; assay type: cell-based, human
Description: The chambers consist of cell culture inserts, 6.5 mm in diameter and with a 8 μm pore size membrane. Each membrane was coated with 100 μL of a 1 mg/mL solution of Matrigel diluted in cold serum-free culture medium (EX-CELL 300), and allowed to dry in a laminar flow cabinet for approximately 12 hours. The Matrigel was then rehydrated by incubating it with 100 μL of serum-free medium for approximately 1 hour. After rehydration, cell suspensions containing 5.0×10^4 or 1.0×10^5 cells in 100 μL of medium, containing both serum and the nitric oxide treatments, were added to each well. Culture medium containing serum and the respective nitric oxide treatment were then added to each insert. The cells were incubated for 24 hours under either hypoxic (1% O2) or control (20% O2) conditions. Following incubation, the non-invading cells were removed from the upper surface of the membrane by wiping with a cotton swab. The cells on the lower surface of the membrane were fixed for 10 minutes with Carnoy's fixative (25% acetic acid, 75% methanol), and then stained for approximately 3 hours with a 1% toluidine blue, 1% sodium borate solution. Following a rinse in phosphate-buffered saline (PBS), the membrane was removed from the insert housing with a small scalpel blade, mounted onto a microscope slide and coverslipped. Invading cells were then viewed under the microscope at 40× magnification and counted. The invasion index for each treatment was calculated by dividing the number of invading cells by the number of cells which invaded under standard conditions. This value was then multiplied by 100 to obtain a percentage. The standard was given a value of 100% and the treatment values were converted to a percentage of the standard. The results were tested for statistical significance using either the Tukey test for pair-wise multiple comparison procedures or the Student-Newman-Keuls method for pair-wise multiple comparison procedures.
The chambers consisted of 6.5-mm inserts with 8-μm pore membranes (Corning Costar Corp., Cambridge, Mass.). Each membrane was coated with 100 μL of a 2.6 mg/mL solution of Matrigel (Collaborative Biochemical Products, Bedford, Mass.) diluted in cold serum-free medium (EX-CELL 300; JRH Biosciences, Lenexa, Kans.), and allowed to dry in a laminar flow cabinet for approximately 12 hours. The Matrigel was then rehydrated with 100 μL of serum-free medium for approximately 1 hour. […] Invading cells were then viewed under the microscope at 40× magnification and counted. The invasion index for each treatment was calculated by dividing the number of invading cells by the number of cells that invaded under standard (20% oxygen) conditions. Invasion indices were expressed as percentages of control (20% oxygen) values. […]

uPAR mRNA = assay: Northern blot analysis of uPAR mRNA in MDA-MB-231 breast carcinoma cells; assay type: cell-based, human
[3] = system: hypoxia-inducible factor-1; details: hypoxically cultured Hep3B cells; read-out: IC50 for suppression of the adaptive cellular response controlled by hypoxia-inducible factor-1; cited from earlier work
[4] = system: MDA-MB-231 breast carcinoma spheroids; assay: Clonogenic survival of MDA-MB-231 spheroids after doxorubicin; assay type: cell-based, human
Description: Following initial cell plating, spheroids formed for 24, 48, 72, 96 or 120 h. At each time point, spheroids were exposed to 200 μM of doxorubicin, then disaggregated and plated for assessment of colony formation (survival).
Spheroids were allowed to form for 72 h. DETA/NO was applied for the final 24 h of spheroid formation. Spheroids were then exposed to doxorubicin for 1 h, prior to disaggregation and plating for assessment of survival by clonogenic assay.
Using human MDA-MB-231 breast carcinoma cells in clonogenic assays, survival was determined following doxorubicin exposure and NO mimetic administration to both monolayer and spheroid cultures.

uPAR protein = assay: Western blot analysis of uPAR protein in MDA-MB-231 breast carcinoma cells; assay type: cell-based, human
Description: Following incubations, the cells were lysed using a buffer containing 40 mM HEPES pH 7.2, 100 mM NaCl, 20% glycerol, 0.1 mM EDTA pH 8.0, 0.2% Triton X-100, 1 mM DTT, and 2 mM PMSF. The lysates were then subjected to homogenization, DNA shearing (10 times with a 25⅝-gauge needle), boiling (5 minutes) and centrifugation (15 minutes, 14000 g). The supernatant was collected and stored at −80° C. until use. The samples were subjected to SDS-polyacrylamide gel electrophoresis (PAGE) and the resolved proteins were transferred to an Immobilon-P membrane using a wet transfer apparatus (Bio-Rad Laboratories, Mississauga, ON). The membranes were blocked overnight at 4° C. in a solution containing 1% PBS, and 0.01% Tween20 (PBS-T) as well as 5% casein. The blots were subsequently incubated for 1.5 hours with the monoclonal anti-uPAR antibody [MoAb 3937], followed by six 5 minute washes with PBS-T. The membranes were then incubated with a horseradish peroxidase labeled goat anti-mouse IgG secondary antibody for 1.5 hours. Following six additional 5 minute washes with PBS-T, the antigen was detected by enhanced chemiluminescence and the blots were exposed onto Dupont Reflection NEF film.
Following incubation, the cells were lysed using a buffer containing 40 mM HEPES pH 7.2, 100 mM NaCl, 20% glycerol, 0.1 mM EDTA pH 8.0, 0.2% Triton X-100, 1 mM dithiothreitol (DTT), and 2 mM phenylmethyl sulfonyl fluoride (PMSF). The lysates were then subjected to homogenization, DNA shearing (10 times with a 25⅝-gauge needle), boiling (5 minutes) and centrifugation (15 minutes at 14,000×g). The supernatant was collected and stored at −80° C. until use. The samples were subjected to SDS-polyacrylamide gel electrophoresis (PAGE) and the resolved proteins were transferred to an Immobilon-P membrane (Millipore Corp., Bedford, Mass.) using a wet transfer apparatus (BioRad Laboratories, Mississauga, ON). The membranes were blocked overnight at 4° C. in a solution containing 1% PBS, and 0.01% Tween 20 (PBS-T) as well as 5% dry milk powder. The blots were subsequently incubated for 1.5 hours with the monoclonal anti-uPAR (MoAb 3937; American Diagnostica Inc., Greenwich, Conn.), or a polyclonal soluble guanylate cyclase (sGC) antiserum (Cayman Chemical, Ann Arbor, Mich.) followed by six 5-minute washes with PBS-T. Subsequently, the uPAR membranes were incubated for 1 hour with a horseradish peroxidase labelled goat anti-mouse IgG secondary antibody (Bio-Rad, Hercules, Calif.) and the sGC membranes were incubated for 1 hour with a goat anti-rabbit IgG horseradish peroxidase conjugate (VECTOR Laboratories Inc., Burlingame, Calif.). Following six additional 5-minute washes with PBS-T, the antigen was detected by enhanced chemiluminescence (Amersham Canada Inc., Mississauga, ON) and the blots were exposed onto Dupont Reflection NEF film.

[5] = system: Bl6F10 metastatic melanoma cells; assay: In vivo experimental metastasis (lung colonization) model; parameters: species or system C57BL6 mice; details: cells cultured in 1% O2 with 8-Br-cGMP (1 μM)
Description: C57BL6 mice were injected i.v. (tail vein) with a bolus of 5×10^4-10^5 Bl6F10 metastatic melanoma cells. Immediately after the tail vein injection, mice were randomly divided into groups of 15 and mice in each group were placed in plexiglass chambers (approximately 3 L) which were continuously flushed with gas mixtures of 20% O2:balance N2 and 10% O2:balance N2, respectively. […] After a 24 hour exposure to an atmosphere of either 20% O2 or 10% O2, mice were removed from the chambers and placed in regular cages kept at room air. Thirteen days later, mice were sacrificed by cervical dislocation, and lungs were removed and fixed in Bouin's fixative (Sigma). Metastatic nodules (many of which appeared black due to the presence of melanin) on the surface of the lungs were counted visually under a dissecting microscope. Data were expressed as the number of lung nodules per 10^4 cells injected and were analyzed using statistical tests for non-parametric values.
(§1) Cells were then removed from plates with trypsin and 5×10^4 cells were injected i.v. (tail vein) into C57BL6 female mice. Some of the cells treated in vitro were plated onto tissue culture dishes to determine colony-forming ability using the protocol described below in the Section I.J.
(§2) Following harvesting from culture plates, 5×10^4 cells were injected intravenously (tail vein injections) into 5-7 week old C57Bl/6 female mice. Cells were also plated in tissue culture plates to determine the effect of culture conditions on in vitro colony forming ability. Fourteen days after intravenous inoculation, mice were sacrificed and their lungs were removed and fixed in Bouin's fixative. Both melanotic and amelanotic metastatic colonies were counted under a dissecting microscope. Data were expressed as the number of lung nodules per 5×10^4 viable cells injected (as determined by in vitro colony-forming ability) and were analyzed using statistical tests for non-parametric values.

[6] = system: Bl6F10 mouse melanoma cells; assay: In vitro colony-forming ability of treated Bl6F10 melanoma cells; assay type: cell-based; details: 8-Br-cGMP treatment
Description: as §1, §2

[7] = 8-Br-cGMP 0.1 μM-10 μM, 24 hours, dose-dependent
[8] = 8-Br-cGMP 10^−3-10^−7 M, 0.5% O2 or DFO 100 μM

sodium trioxodinitrate (II) monohydrate
cell viability [1]: did not significantly affect cell viability

O=S(=O)(NCCNC/C=C/c1ccc(Br)cc1)c1cccc2cnccc12 [H-89]
invasiveness ([2]; H-89 1 μM alone): independently enhanced invasiveness
effect of forskolin on invasion ([2]; H-89 1 μM with forskolin 10 μM): prevented
effect of forskolin on uPAR expression (uPAR mRNA; H-89 1 μM with forskolin 10 μM): prevented
uPAR expression (uPAR mRNA; H-89 1 μM, independent of oxygenation): up-regulation

CC(C)N[N+]([O-])=N[O-].[Na+] [isopropylamine-bis(nitric oxide) adduct sodium salt]
cell viability [1]: did not significantly affect cell viability

CCCN(CCCN)N(O)N=O [3-(n-propylamino)propylamine bis(nitric oxide) adduct]
cell viability [1]: did not significantly affect cell viability

O=NN(O)S(=O)(=O)O [N-nitrosohydroxylamine-N-sulfonate]
cell viability [1]: did not significantly affect cell viability

N=c1c[n+](N2CCOCC2)[n-]o1 [3-morpholinosydnonimine]
IC50 [3]: 490 µM

NCCN(CCN)/[N+]([O-])=N/O [DETA, Diethylenetriamine/nitric oxide adduct]
attenuation of resistance to 200 μM doxorubicin associated with 3D culture [4]: 90%
survival of control (doxorubicin-untreated) cells ([4]; DETA 0.1 mM and 2 μM, GTN 0.1 nM and 1 μM): did not affect the survival

N[C@@H](CCC(=O)N[C@@H](CSN=O)C(=O)NCC(=O)O)C(=O)O [S-nitroso-L-glutathione]
IC50 [3]: 211 µM

CCN(CC)[N+]([O-])=NO [diethylamine-bis(nitric oxide) adduct sodium salt]
cell viability [1]: did not significantly affect cell viability

CC(=O)N(O)CCCCCNC(=O)CCC(=O)N(O)CCCCCNC(=O)CCC(=O)N(O)CCCCCN.CS(=O)(=O)O [DFO, Desferoxamine mesylate]
increase in uPAR mRNA levels (uPAR mRNA; cells cultured in the presence of DFO): 4 fold

COC(=O)[C@@]1(OC)C[C@H]2O[C@]1(C)n1c3ccccc3c3c4c(c5c6ccccc6n2c5c31)C(=O)N(C)C4 [KT5823]
increase in uPAR protein expression (uPAR protein; KT5823 10 μM, 6 hours, 20% O2): 1.8 fold
effect on the effects of 8-Br-cGMP on uPAR expression (uPAR mRNA; KT5823 10 μM): significantly blunted
increase in uPAR mRNA expression (uPAR mRNA; KT5823 10 μM, 6 hours, 20% O2): 1.8 fold

O=c1onc2cnc3ccccc3n12 [ODQ, 1H-[1,2,4]Oxadiazolo-[4,3-a]Quinoxalin-1-One]
effect on ability of GTN (10^−6 M) to abrogate hypoxic induction of uPAR, protein level (uPAR protein; ODQ 0.5 μM): substantially prevented
effect on ability of GTN (10^−6 M) to abrogate hypoxic induction of uPAR, mRNA level (uPAR mRNA; ODQ 0.5 μM): substantially prevented
increase in uPAR mRNA levels (uPAR mRNA; ODQ 0.5 μM, 24 hours, vs 20% O2 alone): 2.7 fold

Nc1nc2c(nc(Br)n2[C@@H]2O[C@@H]3COP(=O)(O)O[C@H]3[C@H]2O)c(=O)[nH]1 [8-Br-cGMP, 8-bromoguanosine 3′:5′-cyclic monophosphate]
effect of hypoxia on invasiveness ([2]; 0.1 μM-1 mM, 24-h, 0.5% O2): completely inhibited
hypoxia-associated invasion ([2]; 8-Br-cGMP): significantly inhibit
reduction of hypoxic upregulation of uPAR protein expression (uPAR protein; [7]): up to 100%
effect on hypoxia- and DFO-induced uPAR expression, protein level (uPAR protein; [8]): significantly abrogated
hypoxic induction of metastatic lung nodules [5]: completely abrogated
viability of the cells (colony formation assay) [6]: did not affect the viability
reduction of hypoxic upregulation of uPAR mRNA expression (uPAR mRNA; [7]): up to 100%
effect on hypoxia- and DFO-induced uPAR expression, mRNA level (uPAR mRNA; [8]): significantly abrogated
DFO-induced upregulation of uPAR mRNA expression (uPAR mRNA; 8-Br-cGMP (1 mM) as printed): complete inhibition
